Two compounds from patent US20250110133A1, “METHOD AND KIT FOR PREDICTING DRUG EFFICACY OF LUNG CANCER TREATMENT AND METHOD FOR TREATING LUNG CANCER” (National Health Research Institutes, priority 2023, published 2025) can be followed below.

Test [1] relates to PC9 cells. As to the kind of experiment: Colony formation assay for gefitinib sensitivity. The note with it: 10-day treatment. Type of test: cell-based, human. The method, then: Data are presented as mean±standard error of mean, n=3. Differences between shLDOC1 and shCtrl at each indicated concentration are analyzed using Student's t test; * p<0.05 and ** p<0.01.
The subject of test [2] is PC9 cells. As to the kind of experiment: cells. The conditions noted are these: Homo sapiens, PC-9, 72 h, read-out: half-maximal inhibitory concentration (IC50).
Method: (§1) Cells were seeded in 96-well cell culture plates and treated the next day with the indicated concentrations of indicated EGFR-TKI. After 3 days, cell numbers were determined with MTT assay.
(§2) All cells are cultured in media containing 10% FBS (Gibco), 1% penicillin (Thermo Fisher, Waltham, MA, USA), and 1% streptomycin (Thermo Fisher); the cells are incubated at 37° C. in a humidified chamber with 5% CO2.
(§3) Cells are seeded at a density of 5×10^3 per well in a 96-well plate. […] An appropriate amount of DMSO is also added to the control cells. After 72 h of treatment, the cells are incubated with a solution of MTT (3-(4,5-dimethylthiazol-2-yl)-2,5-diphenyltetrazolium bromide) (Sigma-Aldrich) for 4 h at 37° C. Subsequently, the medium is aspirated, and 100 μL DMSO is added to solubilize the formazan. Colored formazan converted from MTT using viable cells is measured at 570 nm with a microplate reader (BioRad). Experiments are performed in triplicate. IC50 values are determined using the scientific and statistical software GraphPad Prism 10.0.0.
The subject of test [3] is HCC827 cells. As to the kind of experiment: cells. The note with it: Homo sapiens, HCC827, 72 h, read-out: half-maximal inhibitory concentration (IC50).
Method: (§4) The HCC827 cell line is provided by Dr. Yi-Rong Chen from the Institute of Molecular and Genomic Medicine, National Health Research Institutes, Taiwan. […] PC9 and HCC827 cells are maintained in RPMI1640 (Cytiva). […] All cells are cultured in media containing 10% FBS (Gibco), 1% penicillin (Thermo Fisher, Waltham, MA, USA), and 1% streptomycin (Thermo Fisher); the cells are incubated at 37° C. in a humidified chamber with 5% CO2. […] The cells are checked for Mycoplasma (BioSmart, Seoul, Republic of Korea) upon thawing, and throughout the experimental period they consistently tested negative for Mycoplasma.
as §3
Test [4] concerns HCC827 cells. The note with it: read-out: half-maximal inhibitory concentration (IC50).
Method: as §4, §3
The test system of test [5] is PC9 cells.
Method: as §1, §2, §3

Entries after “also recorded” stand apart in the source; their conditions may differ. Like-named read-outs stand apart in the source and are kept apart here.

As to `COc1cc2ncnc(Nc3ccc(F)c(Cl)c3)c2cc1OCCCN1CCOCC1` [gefitinib], the “colony formation under drug treatment” value is “increased the number of cell colonies; also recorded: survive and form colonies” in test [1] (LDOC1-depleted (shLDOC1) PC9 cells); “no colonies” in test [1] (PC9-shCtrl cells).
On to `C=CC(=O)Nc1cc(Nc2nccc(-c3cn(C)c4ccccc34)n2)c(OC)cc1N(C)CCN(C)C` [osimertinib], for which the IC50 in test [2] is 900 nM; in test [3], 1800 nM; in test [4], 2300 nM. For the same compound, the “IC50 / inhibitory effect in shLDOC1 cells compared with shCtrl cells” value in test [5] is recorded as “almost the same inhibitory effect”.
